Consider eleven molecules from patent US8415312B2, “Compound which is a nystatin derivative” (Biosergen AS, priority 2007, dated 2013).

Common to all, as to assay: Antifungal susceptibility study (1), broth microdilution MIC
Type in all cases: cell-based
For orientation: Dilution methods test growth across graded concentrations, often in twofold steps.

The subject of assay [1] is Candida albicans ATCC 14053. The following applies: lowest concentration preventing any visible growth, read at 48 hours, 35° C., RPMI 1640 pH 7.0. How it is done:
(§1) ACROS ORGANICS, New Jersey, USA), pH 7.0, was used in study. […] Then these DMSO solutions were diluted 50-fold (first 10-fold and then 5-fold) in the test medium. […] The solutions were prepared just before using. The organisms used for susceptibility testing were: Candida albicans ATCC 14053, Cryptococcus humicolus ATCC 9949, Aspergillus niger ATCC 16404 and Fusarium oxysporum VKM F-140 (=CMI, IMI 90473). Organisms were stored on potato dextrose agar […] 50% glycerol solution at -70° C. For short-term storage, stock cultures were stored on agar […] 4° C. The cultures of yeasts were sub-cultured onto Sabouraud dextrose (SAB) agar and incubated for 24 hours at 35° C. (Candida albicans) or for 48 hours at 25° C. (Cryptococcus humicolus) to obtain a freshly grown pure culture. The cultures of moulds were sub-cultured onto potato dextrose agar and incubated for 7 days at 35° C. […] (Fusarium oxysporum) to ensure maximum sporulation. […] Inoculum quantitation was performed by plating dilution of the inoculum on Sabouraud dextrose agar to determine the viable number of CFU per milliliter. Sterile 96-well flat-bottomed microtitration plates were used for testing. 100 μl of diluted inocula were dispensed into each microdilution well containing 100 μl of the double dilutions of compounds. Drug-free and yeast/mould-free controls were included. Microdilution trays were incubated at 35° C. (Candida albicans and moulds) or 25° C. (Cryptococcus humicolus) without agitation and observed for the presence or absence of visible growth. […] Minimal inhibitory concentrations (MICs) were read at 48 hours.

The test system of assay [2] is Cryptococcus humicolus ATCC 9949. The conditions noted are these: lowest concentration preventing any visible growth, read at 48 hours, 25° C., RPMI 1640 pH 7.0. The procedure:
as §1

For assay [3], the system named is Aspergillus niger ATCC 16404. The conditions noted are these: lowest concentration preventing any visible growth, read at 48 hours, 35° C., RPMI 1640 pH 7.0. How it is done: (§2) ACROS ORGANICS, New Jersey, USA), pH 7.0, was used in study. […] Then these DMSO solutions were diluted 50-fold (first 10-fold and then 5-fold) in the test medium. […] The solutions were prepared just before using. The organisms used for susceptibility testing were: Candida albicans ATCC 14053, Cryptococcus humicolus ATCC 9949, Aspergillus niger ATCC 16404 and Fusarium oxysporum VKM F-140 (=CMI, IMI 90473). Organisms were stored on potato dextrose agar […] 50% glycerol solution at -70° C. For short-term storage, stock cultures were stored on agar […] 4° C. The cultures of yeasts were sub-cultured onto Sabouraud dextrose (SAB) agar and incubated for 24 hours at 35° C. (Candida albicans) or for 48 hours at 25° C. (Cryptococcus humicolus) to obtain a freshly grown pure culture. The cultures of moulds were sub-cultured onto potato dextrose agar and incubated for 7 days at 35° C. […] (Fusarium oxysporum) to ensure maximum sporulation. […] Finally, the suspensions were vortexed for 15 s to break up clumps of cells and then filtered through four layers of sterile gauze. The densities of conidial spore suspensions was measured at 530 nm and adjusted to 0.09-0.11 for Aspergillus niger and 0.15-0.17 for Fusarium oxysporum. These suspensions were diluted 1:50 with the standard medium. […] Inoculum quantitation was performed by plating dilution of the inoculum on Sabouraud dextrose agar to determine the viable number of CFU per milliliter. Sterile 96-well flat-bottomed microtitration plates were used for testing. 100 μl of diluted inocula were dispensed into each microdilution well containing 100 μl of the double dilutions of compounds. Drug-free and yeast/mould-free controls were included. Microdilution trays were incubated at 35° C. (Candida albicans and moulds) or 25° C. (Cryptococcus humicolus) without agitation and observed for the presence or absence of visible growth. […] Minimal inhibitory concentrations (MICs) were read at 48 hours.

For assay [4], the system named is Fusarium oxysporum VKM F-140. The conditions noted are these: lowest concentration preventing any visible growth, read at 48 hours, 35° C., RPMI 1640 pH 7.0. How it is done: as §2

In brackets after ≈: the same amount, converted by molar mass.

For the molecule `CC1O[C@@H](O[C@H]2/C=C/C=C/C=C/C=C/C=C/C=C/C=C/[C@H](C)[C@@H](O)[C@@H](C)[C@H](C)OC(=O)C[C@H](O)C[C@H](O)C[C@H](O)CC[C@@H](O)[C@H](O)C[C@]3(O)C[C@H](O)[C@@H](C(=O)NCCN(C)C)[C@H](C2)O3)[C@H](O)C(NCC2(O)OC[C@@H](O)[C@H](O)[C@@H]2O)[C@@H]1O` (some centres unmarked) [Compound 42, N-tagatopyronosyl S44HP DMAE amide], the “MIC Candida albicans ATCC 14053” value in assay [1] is 0.5 µg/mL (≈ 0.432 µM). For the same molecule, in assay [2], the “MIC Cryptococcus humicolus ATCC 9949” value was found to be 1 µg/mL (≈ 0.865 µM). The “MIC Aspergillus niger ATCC 16404” value in assay [3] amounted to 1 µg/mL (≈ 0.865 µM). The “MIC Fusarium oxysporum VKM F-140” value in assay [4] was 2 µg/mL (≈ 1.73 µM).
Take `CC1O[C@@H](O[C@H]2/C=C/C=C/C=C/C=C/C=C/C=C/C=C/[C@H](C)[C@@H](O)[C@@H](C)[C@H](C)OC(=O)C[C@H](O)C[C@H](O)C[C@H](O)CC[C@@H](O)[C@H](O)C[C@]3(O)C[C@H](O)[C@@H](C(=O)NCCN(C)C)[C@H](C2)O3)[C@H](O)C(NCc2ccc(N(C)C)cc2)[C@@H]1O` (some centres unmarked) [Compound 43]: in assay [1], the “MIC Candida albicans ATCC 14053” value worked out at 1 µg/mL (≈ 0.887 µM). The “MIC Cryptococcus humicolus ATCC 9949” value in assay [2] came out at 1 µg/mL (≈ 0.887 µM). Also, in assay [3], the “MIC Aspergillus niger ATCC 16404” value is 1 µg/mL (≈ 0.887 µM). The “MIC Fusarium oxysporum VKM F-140” value in assay [4] is 4 µg/mL (≈ 3.55 µM).
As for `CC1O[C@@H](O[C@H]2/C=C/C=C/C=C/C=C/C=C/C=C/C=C/[C@H](C)[C@@H](O)[C@@H](C)[C@H](C)OC(=O)C[C@H](O)C[C@H](O)C[C@H](O)CC[C@@H](O)[C@H](O)C[C@]3(O)C[C@H](O)[C@@H](C(=O)NCCN(C)C)[C@H](C2)O3)[C@H](O)C(NC(=O)[C@@H](N)CCCCN)[C@@H]1O.Cl` (some centres unmarked) [Compound 44], the “MIC Candida albicans ATCC 14053” value in assay [1] was found to be 1 µg/mL. Further, the “MIC Cryptococcus humicolus ATCC 9949” value in assay [2] was 2 µg/mL. Also, in assay [3], the “MIC Aspergillus niger ATCC 16404” value was 2 µg/mL. Also, in assay [4], the “MIC Fusarium oxysporum VKM F-140” value worked out at 4 µg/mL.
Take `CC1O[C@@H](O[C@H]2/C=C/C=C/C=C/C=C/C=C/C=C/C=C/[C@H](C)[C@@H](O)[C@@H](C)[C@H](C)OC(=O)C[C@H](O)C[C@H](O)C[C@H](O)CC[C@@H](O)[C@H](O)C[C@]3(O)C[C@H](O)[C@@H](C(=O)NCCN(C)C)[C@H](C2)O3)[C@H](O)C(NC(=O)CN(C)C)[C@@H]1O` (some centres unmarked) [Compound 45]: the “MIC Candida albicans ATCC 14053” value in assay [1] worked out at 1 µg/mL (≈ 0.926 µM). The “MIC Cryptococcus humicolus ATCC 9949” value in assay [2] came out at 2 µg/mL (≈ 1.85 µM). In addition, the “MIC Aspergillus niger ATCC 16404” value in assay [3] came out at 1 µg/mL (≈ 0.926 µM). Moreover, the “MIC Fusarium oxysporum VKM F-140” value in assay [4] worked out at 4 µg/mL (≈ 3.71 µM).
On to `CC1O[C@@H](O[C@H]2/C=C/C=C/C=C/C=C/C=C/C=C/C=C/[C@H](C)[C@@H](O)[C@@H](C)[C@H](C)OC(=O)C[C@H](O)C[C@H](O)C[C@H](O)CC[C@@H](O)[C@H](O)C[C@]3(O)C[C@H](O)[C@@H](C(=O)NCCN(C)C)[C@H](C2)O3)[C@H](O)C(NC(=O)c2ccc(CN)cc2)[C@@H]1O` (some centres unmarked) [Compound 46], for which the “MIC Candida albicans ATCC 14053” value in assay [1] was determined as 2 µg/mL (≈ 1.77 µM). Moreover, the “MIC Cryptococcus humicolus ATCC 9949” value in assay [2] was determined as 2 µg/mL (≈ 1.77 µM). Besides, in assay [3], the “MIC Aspergillus niger ATCC 16404” value amounted to 2 µg/mL (≈ 1.77 µM). Moreover, the “MIC Fusarium oxysporum VKM F-140” value in assay [4] amounted to 4 µg/mL (≈ 3.55 µM).
For `CC1O[C@@H](O[C@H]2/C=C/C=C/C=C/C=C/C=C/C=C/C=C/[C@H](C)[C@@H](O)[C@@H](C)[C@H](C)OC(=O)C[C@H](O)C[C@H](O)C[C@H](O)CC[C@@H](O)[C@H](O)C[C@]3(O)C[C@H](O)[C@@H](C(=O)O)[C@H](C2)O3)[C@H](O)C(NC(=O)c2ccc(CN)cc2)[C@@H]1O` (some centres unmarked) [Compound 47, N-(4-Aminomethylbenzoyl) S44HP], in assay [1], the “MIC Candida albicans ATCC 14053” value is 2 µg/mL (≈ 1.89 µM). In addition, the “MIC Cryptococcus humicolus ATCC 9949” value in assay [2] is 2 µg/mL (≈ 1.89 µM). Also, the “MIC Aspergillus niger ATCC 16404” value in assay [3] was found to be 4 µg/mL (≈ 3.78 µM). The “MIC Fusarium oxysporum VKM F-140” value in assay [4] came to 16 µg/mL (≈ 15.1 µM).
For the molecule `CC1O[C@@H](O[C@H]2/C=C/C=C/C=C/C=C/C=C/C=C/C=C/[C@H](C)[C@@H](O)[C@@H](C)[C@H](C)OC(=O)C[C@H](O)C[C@H](O)C[C@H](O)CC[C@@H](O)[C@H](O)C[C@]3(O)C[C@H](O)[C@@H](C)[C@H](C2)O3)[C@H](O)C(NCc2ccc(N(C)C)cc2)[C@@H]1O` (some centres unmarked) [Compound 50, N-(4-N,N-Di-methylaminobenzyl) Compound 1], the “MIC Candida albicans ATCC 14053” value in assay [1] came to 2 µg/mL (≈ 1.95 µM). For the same molecule, the “MIC Cryptococcus humicolus ATCC 9949” value in assay [2] was determined as 2 µg/mL (≈ 1.95 µM). Moreover, the “MIC Aspergillus niger ATCC 16404” value in assay [3] was 2 µg/mL (≈ 1.95 µM). In addition, the “MIC Fusarium oxysporum VKM F-140” value in assay [4] was 8 µg/mL (≈ 7.79 µM).
As to `CC1O[C@@H](O[C@H]2/C=C/C=C/C=C/C=C/C=C/C=C/C=C/[C@H](C)[C@@H](O)[C@@H](C)[C@H](C)OC(=O)C[C@H](O)C[C@H](O)C[C@H](O)CC[C@@H](O)[C@H](O)C[C@]3(O)C[C@H](O)[C@@H](C)[C@H](C2)O3)[C@H](O)C(N)[C@@H]1O.Cl` (some centres unmarked) [Compound 53, Compound 1 Hydrochloride], in assay [1], the “MIC Candida albicans ATCC 14053” value is 2 µg/mL. Moreover, the “MIC Cryptococcus humicolus ATCC 9949” value in assay [2] stood at 2 µg/mL. In addition, the “MIC Aspergillus niger ATCC 16404” value in assay [3] turned out to be 4 µg/mL. Also, in assay [4], the “MIC Fusarium oxysporum VKM F-140” value came out at 4 µg/mL.
`CC1O[C@@H](O[C@H]2/C=C/C=C/C=C/C=C/C=C/C=C/C=C/[C@H](C)[C@@H](O)[C@@H](C)[C@H](C)OC(=O)C[C@H](O)C[C@H](O)C[C@H](O)CC[C@@H](O)[C@H](O)C[C@]3(O)C[C@H](O)[C@@H](C)[C@H](C2)O3)[C@H](O)C(N)[C@@H]1O.N[C@H](CCC(=O)O)C(=O)O` (some centres unmarked) [Compound 54]: the “MIC Candida albicans ATCC 14053” value in assay [1] is 2 µg/mL. In addition, the “MIC Cryptococcus humicolus ATCC 9949” value in assay [2] is 2 µg/mL. Moreover, the “MIC Aspergillus niger ATCC 16404” value in assay [3] is 2 µg/mL. The “MIC Fusarium oxysporum VKM F-140” value in assay [4] came to 2 µg/mL.
Regarding `CC1O[C@@H](O[C@H]2/C=C/C=C/C=C/C=C/C=C/C=C/C=C/[C@H](C)[C@@H](O)[C@@H](C)[C@H](C)OC(=O)C[C@H](O)C[C@H](O)C[C@H](O)CC[C@@H](O)[C@H](O)C[C@]3(O)C[C@H](O)[C@@H](C)[C@H](C2)O3)[C@H](O)C(N)[C@@H]1O.N[C@@H](CC(=O)O)C(=O)O` (some centres unmarked) [Compound 55], the “MIC Candida albicans ATCC 14053” value in assay [1] came to 2 µg/mL. The “MIC Cryptococcus humicolus ATCC 9949” value in assay [2] was found to be 2 µg/mL. Moreover, in assay [3], the “MIC Aspergillus niger ATCC 16404” value was determined as 2 µg/mL. For the same molecule, the “MIC Fusarium oxysporum VKM F-140” value in assay [4] was 2 µg/mL.
As to `CC1O[C@@H](O[C@H]2/C=C/C=C/C=C/C=C/C=C/C=C/C=C/[C@H](C)[C@@H](O)[C@@H](C)[C@H](C)OC(=O)C[C@H](O)C[C@H](O)C[C@H](O)CC[C@@H](O)[C@H](O)C[C@]3(O)C[C@H](O)[C@@H](C)[C@H](C2)O3)[C@H](O)C(N)[C@@H]1O.O=C(O)C(Cl)Cl` (some centres unmarked) [Compound 57], the “MIC Candida albicans ATCC 14053” value in assay [1] amounted to 2 µg/mL. For the same molecule, the “MIC Cryptococcus humicolus ATCC 9949” value in assay [2] was 2 µg/mL. In assay [3], the “MIC Aspergillus niger ATCC 16404” value worked out at 2 µg/mL. Also, in assay [4], the “MIC Fusarium oxysporum VKM F-140” value turned out to be 2 µg/mL.
